Laboratory results as given in patent US20260347399A1, “BRAIN PENETRATING PEPTIDES AND METHODS OF USE” (priority 2022, published 2026).
“Also recorded” adds a separate entry of the source. Read-outs that look alike come from different tables or passages of the source. Peptide text beside a SMILES is read from it. * marks the point of attachment. 5FAM = O=C1OC2(c3ccc(O)cc3Oc3cc(O)ccc32)c2ccc(C(=O)*)cc21; FAM = 5(6)-carboxyfluorescein; Ahx = NCCCCCC(=O)O

Experiments:
[1] = tested on: GBM and normal brain parenchyma; test: Synthetic peptide homing in glioma-bearing mice (IHC); format: in vivo, mouse; conditions: synthetic peptide i.v., 1 h; WT-GBM and VEGFko GBM-bearing mice
Method: CVGTNCY (SEQ ID NO:2) peptide-phage or control phage were injected iv into mice, after one hour circulation animals were perfused with 20 ml PBS, organs were collected, weighed, and dropped to 1% NP40-LB solution. Organs were homogenized and titer of each tissue was determined. FAM-labeled peptides (2 mM of peptide in PBS) were injected intravenously and 3 hours later the animals were perfused with 20 mL of PBS. The organs were excised, snap-frozen in the vapor of liquid nitrogen, and stored at −80 °C. For confocal microscopy, the tissues were sectioned at 15 μm and stained with antibodies and DAPI.
Cryosections (15 μm) on Superfrost Plus slides were fixed in cold methanol, washed in PBS, treated with 3% hydrogen peroxide, and blocked in PBS containing 0.05% Tween-20, 5% BSA, and 5% goat serum (GE Healthcare, UK) for 1 h. The sections were immunostained with rabbit anti-fluorescein (cat #A889, Thermo Fisher Scientific, MA, USA) antibody overnight at +4 °C. […] Sections were imaged with Leica Aperio VERSA microscope slide scanner. Imaged were processed with Aperio Image Scope (v12.4.3.5008).
The synthetic CVGTNCY (SEQ ID NO:2) peptide or scrambled CVGTNCY (SEQ ID NO:2) homing in WT-GBM and VEGFko GBM-bearing mice was analyzed after i.v. injection and perfusion of the animals. Cryosections of glioma-bearing brains were stained with anti-FAM antibody and tyramide amplification kit to enhance the signal of the peptide.
To assess homing of CVG peptide in glioblastoma, CVGTNCY (SEQ ID NO:2) peptide-phage was injected iv into mice bearing either WT-GBM, VEGFko, U87MG or NCH421k GBM, and to mice without a tumor. At one hour time point mice were perfused, brains and control organs collected and titered. […] (FIGS. 17A-17B) Distribution of CVG peptide in GBM and brain parenchyma was also assessed. CVGTNCY (SEQ ID NO:2) peptide or its scrambled version (CVYTCNG; (SEQ ID NO: 68)) was injected iv into glioma bearing mice, after 1 hour circulation mice were perfused and tissues of interest snap-frozen in liquid nitrogen.

[2] = molecular target: human LRP1 (Homo sapiens, UniProt Q07954); test: Surface plasmon resonance analysis; format: binding; conditions: SPR
Method: Whether Cerepep (SRRVISRAKLAAAL (SEQ ID NO:9)) binds to human LRP1 purified from placenta was tested using surface plasmon resonance analysis. […] Furthermore, binding of CP-neutravidin complex to LRP1 is inhibited by RAP and EDTA, as can be expected with LRP1 ligands.
To determine which amino acid positions are important for brain homing of SERVISRAKLAAAL (SEQ ID NO:9), a pool of peptide-phage clones was compiled, where every amino acid position was one-by-one changed to alanine (alanines were changed to leucines). The peptide-phages were mixed in equimolar ratio, the Cerepep phage was included as a positive control and insertless as a negative control. The phage mix was injected into mice and following a 1 h circulation the amount of different phage clones in the brain was determined using HTS. […] Surface plasmon resonance analysis with human LRP-1 immobilized on a BIAcore sensor chip was used to assess whether CP-neutravidin complex directly interacts with human LRP-1. Angiopep-2-neutravidin complex was used as a positive control (FIGS. 7A-7B).

[3] = tested on: Neuro2A cells; test: Effect of endocytic inhibitors on CP-AgNP uptake (flow cytometry); format: cell-based, mouse; conditions: inhibitor 30 min at 37 °C: nystatin 50 μM, cytochalasin D 4 μM, chlorpromazine 30 μM
Method: […] The CP-AgNPs or control biotin-AgNPs were then added, and the cells were incubated at 37 °C for 1h, treated with an etching solution to remove accessible surface-bound AgNPs and subsequently washed with DPBS. The fluorescence of the labeled AgNPs was detected using the BD Accuri flow cytometer by monitoring the 555 nm channel FL2 and analyzed using FCS Express 7 software.
To study how treatment with endocytic inhibitors (nystatin, EIPA, cytochalasin D and chlorpromazine) affects the uptake of CP-AgNPs in Neuro2A cells, flow cytometry was used. Nystatin was used to block caveolae/lipid-mediated endocytosis, EIPA to block micropinocytosis, cytochalasin D to block actin polymerization and micropinocytosis and chlorpromazine to block clathrin-mediated endocytosis.

[4] = tested on: Huntington's disease subjects; conditions: human, in vivo; cited from earlier work
[5] = tested on: ADHD / ASD subjects; conditions: cited from earlier work
[6] = tested on: ALS subjects; conditions: human, in vivo, cited from earlier work
[7] = tested on: Neuro2A cells; test: In vitro FAM-peptide binding and uptake; format: cell-based, mouse; conditions: 30 μM, 1 h, 4 °C (binding) or 37 °C (uptake)
Method: To assess the binding and uptake of Cerepep peptide, Neuro2A were cultured in 24-well plates on polylysine coated glass coverslips until 80-90% confluency. FAM-Cerepep (FAM-Ahx-SRRVISRAKLAAAL-OH (SEQ ID NO:9)) or control FAM-RPAR (FAM-RPARPAR-OH (SEQ ID NO:74)) peptide with the final concentration of 30 µM was added to Neuro2A cells in growth media and incubated at 4 °C (to study the binding) or 37 °C (to study the uptake) for 1 h. The cells were washed 4 times with growth media and fixed in methanol. The samples were stained with anti-fluorescein antibody to enhance the FAM signal. The fixed cells were first blocked with PBST (PBS+0.05% Tween 20), 5% BSA, 5% goat serum at RT for 30 min, followed by incubation with rabbit anti-fluorescein IgG (cat. no. A889, Thermo Fisher Scientific, MA, USA) at 4 °C for O/N and Alexa 647 goat anti-rabbit IgG secondary antibody at RT for 1h. Nuclei were counterstained with DAPI at 1 μg/ml. The coverslips were mounted on glass slides with Fluoromount-G (Electron Microscopy Sciences, PA, USA), imaged using confocal microscopy (Olympus FV1200MPE, Tokyo, Japan) and analyzed using the FV10-ASW4.2 software.
The binding (at 4 °C) and uptake (at 37 °C) of synthetic FAM-Cerepep by Neuro2A cells was also studied, comparing it to a control FAM-RPAR peptide which has a similar charge.

[8] = tested on: P3 human stem cells; test: Inhibition of AgNP-Cerepep binding (FACS); format: cell-based; conditions: 4 °C, 1 h
Method: Briefly, P3 human stem cells were incubated with the indicated antibody (AB) or RAP (diluted in 20% of glycerol) at 4 °C for 1 h, after cells were exposed to AgNP-control or AgNP-Cerepep for 1 h at 4 °C, then the cells were analyzed by FACS.

Sequence of human LRP1 (Q07954 20-4544): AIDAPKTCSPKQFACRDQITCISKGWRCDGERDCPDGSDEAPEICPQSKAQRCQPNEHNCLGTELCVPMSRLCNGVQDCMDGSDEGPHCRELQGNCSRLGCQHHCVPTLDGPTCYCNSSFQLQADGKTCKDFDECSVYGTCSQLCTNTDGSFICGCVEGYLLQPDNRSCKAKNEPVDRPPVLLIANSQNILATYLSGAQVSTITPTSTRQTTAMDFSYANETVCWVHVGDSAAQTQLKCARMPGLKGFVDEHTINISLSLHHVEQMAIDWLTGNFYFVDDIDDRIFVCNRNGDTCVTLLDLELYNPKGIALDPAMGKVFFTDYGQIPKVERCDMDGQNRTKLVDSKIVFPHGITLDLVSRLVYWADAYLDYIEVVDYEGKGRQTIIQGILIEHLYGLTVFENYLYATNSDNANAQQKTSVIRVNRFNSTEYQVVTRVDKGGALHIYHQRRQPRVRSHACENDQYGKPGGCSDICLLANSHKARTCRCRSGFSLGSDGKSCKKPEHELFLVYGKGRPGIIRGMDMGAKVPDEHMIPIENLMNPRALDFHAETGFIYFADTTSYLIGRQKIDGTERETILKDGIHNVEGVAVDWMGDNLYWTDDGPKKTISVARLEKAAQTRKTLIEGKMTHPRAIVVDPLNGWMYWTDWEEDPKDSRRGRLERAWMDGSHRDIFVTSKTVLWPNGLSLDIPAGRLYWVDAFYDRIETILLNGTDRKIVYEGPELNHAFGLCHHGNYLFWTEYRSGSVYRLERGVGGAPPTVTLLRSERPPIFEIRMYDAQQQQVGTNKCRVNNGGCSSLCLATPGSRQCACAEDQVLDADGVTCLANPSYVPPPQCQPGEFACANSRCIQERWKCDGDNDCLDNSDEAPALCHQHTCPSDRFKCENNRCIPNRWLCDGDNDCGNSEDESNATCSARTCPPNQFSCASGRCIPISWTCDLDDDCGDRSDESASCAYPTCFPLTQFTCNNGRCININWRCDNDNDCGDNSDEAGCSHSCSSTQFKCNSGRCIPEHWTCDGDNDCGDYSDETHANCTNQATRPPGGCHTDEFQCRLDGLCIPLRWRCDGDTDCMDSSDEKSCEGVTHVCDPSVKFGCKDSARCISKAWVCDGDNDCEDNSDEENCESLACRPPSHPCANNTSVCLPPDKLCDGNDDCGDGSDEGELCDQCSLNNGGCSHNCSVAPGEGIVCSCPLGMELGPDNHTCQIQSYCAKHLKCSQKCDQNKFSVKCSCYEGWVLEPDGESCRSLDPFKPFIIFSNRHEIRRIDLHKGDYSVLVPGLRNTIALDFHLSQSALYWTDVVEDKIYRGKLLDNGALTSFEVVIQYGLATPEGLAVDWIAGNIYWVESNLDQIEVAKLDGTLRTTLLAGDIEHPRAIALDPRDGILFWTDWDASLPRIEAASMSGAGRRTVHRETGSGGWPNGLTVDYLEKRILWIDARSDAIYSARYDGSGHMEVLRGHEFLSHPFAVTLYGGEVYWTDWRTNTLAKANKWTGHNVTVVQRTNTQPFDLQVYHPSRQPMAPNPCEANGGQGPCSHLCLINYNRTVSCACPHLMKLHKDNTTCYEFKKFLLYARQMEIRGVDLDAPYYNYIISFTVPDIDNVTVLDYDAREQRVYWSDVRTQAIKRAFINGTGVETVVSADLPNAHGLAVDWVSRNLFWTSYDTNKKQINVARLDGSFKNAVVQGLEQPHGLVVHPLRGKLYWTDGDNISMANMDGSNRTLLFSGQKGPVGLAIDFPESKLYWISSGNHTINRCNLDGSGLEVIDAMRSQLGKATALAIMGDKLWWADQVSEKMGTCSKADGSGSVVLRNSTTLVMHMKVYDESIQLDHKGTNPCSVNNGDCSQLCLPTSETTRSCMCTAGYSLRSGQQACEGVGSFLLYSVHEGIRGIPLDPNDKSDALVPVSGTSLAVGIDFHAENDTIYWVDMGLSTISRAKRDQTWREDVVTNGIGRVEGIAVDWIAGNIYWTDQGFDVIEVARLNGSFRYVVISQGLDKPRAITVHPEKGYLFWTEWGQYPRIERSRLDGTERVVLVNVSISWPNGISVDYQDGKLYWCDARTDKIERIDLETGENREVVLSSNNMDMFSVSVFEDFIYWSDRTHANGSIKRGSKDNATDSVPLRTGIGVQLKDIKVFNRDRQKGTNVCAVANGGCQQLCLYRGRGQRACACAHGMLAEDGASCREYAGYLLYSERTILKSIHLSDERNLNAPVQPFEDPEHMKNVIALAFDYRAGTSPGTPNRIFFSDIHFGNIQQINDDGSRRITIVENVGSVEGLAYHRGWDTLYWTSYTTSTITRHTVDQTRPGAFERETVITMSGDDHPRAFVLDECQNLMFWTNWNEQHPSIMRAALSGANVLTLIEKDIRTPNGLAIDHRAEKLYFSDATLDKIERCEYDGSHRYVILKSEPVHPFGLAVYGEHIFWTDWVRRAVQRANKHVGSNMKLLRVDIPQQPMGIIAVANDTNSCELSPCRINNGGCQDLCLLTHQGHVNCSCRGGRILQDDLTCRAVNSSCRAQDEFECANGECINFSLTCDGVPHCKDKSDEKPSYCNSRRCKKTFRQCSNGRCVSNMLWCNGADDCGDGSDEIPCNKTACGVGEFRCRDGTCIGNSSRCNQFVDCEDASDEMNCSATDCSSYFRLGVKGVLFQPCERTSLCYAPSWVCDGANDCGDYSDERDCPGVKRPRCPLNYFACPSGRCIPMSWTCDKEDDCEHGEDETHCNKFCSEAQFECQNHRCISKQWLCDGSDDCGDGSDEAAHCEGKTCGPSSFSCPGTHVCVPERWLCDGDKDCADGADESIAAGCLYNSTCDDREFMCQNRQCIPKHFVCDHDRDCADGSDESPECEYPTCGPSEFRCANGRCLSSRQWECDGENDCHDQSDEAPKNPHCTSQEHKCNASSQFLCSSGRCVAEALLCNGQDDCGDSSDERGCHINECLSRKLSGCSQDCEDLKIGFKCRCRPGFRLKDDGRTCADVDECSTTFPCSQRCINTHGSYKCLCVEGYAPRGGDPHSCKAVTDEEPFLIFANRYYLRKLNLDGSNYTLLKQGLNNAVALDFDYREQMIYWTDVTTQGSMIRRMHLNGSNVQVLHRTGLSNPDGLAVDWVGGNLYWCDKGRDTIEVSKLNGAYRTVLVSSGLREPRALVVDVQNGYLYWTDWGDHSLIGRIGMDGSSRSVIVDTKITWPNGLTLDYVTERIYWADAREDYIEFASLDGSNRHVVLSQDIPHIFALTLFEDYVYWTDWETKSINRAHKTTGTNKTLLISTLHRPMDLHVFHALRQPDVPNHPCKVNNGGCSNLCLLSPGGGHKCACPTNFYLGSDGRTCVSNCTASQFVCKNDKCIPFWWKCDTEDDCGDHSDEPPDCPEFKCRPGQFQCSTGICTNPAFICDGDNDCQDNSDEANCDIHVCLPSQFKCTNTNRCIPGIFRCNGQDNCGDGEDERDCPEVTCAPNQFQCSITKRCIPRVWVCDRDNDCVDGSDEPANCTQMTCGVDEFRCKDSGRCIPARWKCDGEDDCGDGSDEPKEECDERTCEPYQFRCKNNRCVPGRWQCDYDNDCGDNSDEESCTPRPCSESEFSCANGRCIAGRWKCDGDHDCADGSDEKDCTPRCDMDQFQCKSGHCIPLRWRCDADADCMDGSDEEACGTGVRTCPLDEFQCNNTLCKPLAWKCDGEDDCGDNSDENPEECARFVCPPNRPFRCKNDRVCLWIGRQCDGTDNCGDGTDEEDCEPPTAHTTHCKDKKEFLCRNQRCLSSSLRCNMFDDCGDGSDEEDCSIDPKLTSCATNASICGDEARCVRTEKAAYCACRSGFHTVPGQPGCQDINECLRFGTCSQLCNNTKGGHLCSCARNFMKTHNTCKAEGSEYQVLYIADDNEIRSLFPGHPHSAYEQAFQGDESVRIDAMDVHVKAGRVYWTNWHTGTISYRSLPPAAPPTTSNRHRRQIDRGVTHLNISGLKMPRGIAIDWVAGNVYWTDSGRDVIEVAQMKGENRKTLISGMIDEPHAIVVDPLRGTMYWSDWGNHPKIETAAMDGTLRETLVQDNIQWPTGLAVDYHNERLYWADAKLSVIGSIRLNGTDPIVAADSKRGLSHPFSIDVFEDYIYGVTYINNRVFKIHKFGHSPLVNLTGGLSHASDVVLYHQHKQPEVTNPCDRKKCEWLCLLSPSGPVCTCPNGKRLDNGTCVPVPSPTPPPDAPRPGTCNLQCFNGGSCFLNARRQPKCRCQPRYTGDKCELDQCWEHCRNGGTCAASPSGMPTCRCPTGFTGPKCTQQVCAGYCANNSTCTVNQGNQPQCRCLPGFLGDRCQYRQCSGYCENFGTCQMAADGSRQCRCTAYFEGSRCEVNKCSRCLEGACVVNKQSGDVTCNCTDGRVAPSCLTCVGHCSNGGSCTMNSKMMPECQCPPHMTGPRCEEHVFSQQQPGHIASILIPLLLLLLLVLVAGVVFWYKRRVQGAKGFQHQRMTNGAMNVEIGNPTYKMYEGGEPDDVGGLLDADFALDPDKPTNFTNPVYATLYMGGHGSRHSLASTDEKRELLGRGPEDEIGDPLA

## CC(C)[C@H](NC(=O)[C@H](CS)NC(=O)CCCCCNC(=O)c1ccc2c(c1)C(=O)OC21c2ccc(O)cc2Oc2cc(O)ccc21)C(=O)N[C@@H](Cc1ccc(O)cc1)C(=O)N[C@H](C(=O)N[C@@H](CS)C(=O)N[C@@H](CC(N)=O)C(=O)NCC(=O)O)[C@@H](C)O [CVYTCNG, reference compound] ({5FAM-Ahx}-CVYTCNG-OH)
[1]
  detection in brain parenchyma: not detectable in the brain parenchyma; also recorded: no targeting to brain parenchyma
  detection/targeting in GBM: binding was detected in the GBM

## O=C(O)CN(CCN(CC(=O)O)CC(=O)O)CC(=O)O [EDTA]
[2]
  inhibition of CP-neutravidin binding to LRP1: inhibited

## CC1C=CC=CCCC=CC=CC=CC=CC(OC2OC(C)C(O)C(N)C2O)CC2OC(O)(CC(O)C(O)CCC(O)CC(O)CC(O)CC(=O)OC(C)C(C)C1O)CC(O)C2C(=O)O (stereo not shown) [Nystatin]
[3]
  inhibitory effect on the uptake of CP-AgNPs: did not have a statistically significant inhibitory effect

## NC12CC3CC(CC(C3)C1)C2 [amantadine]
[4]
  results in Huntington's disease: preliminary positive results

## COC(=O)C(c1ccccc1)C1CCCCN1 (stereo not shown) [methylphenidate]
[5]; ADHD
  treatment of ADHD: safe and effective
[5]; children with ASD
  treatment of hyperactivity in children with ASD: effectively treat hyperactivity in children with ASD

## CC(Cc1ccccc1)(NC(=O)CN)c1ccccc1 (stereo not shown) [remacemide]
[4]
  results in Huntington's disease: preliminary positive results

## Nc1nc2ccc(OC(F)(F)F)cc2s1 [riluzole, 2-amino-6-(trifluoromethoxy)benzothiazole]
[6]
  survival time in subjects with ALS: borderline significance with respect to survival time
[6]; listed as Riluzole
  survival time in subjects with ALS: improved survival time in subjects with ALS

## FAM-RPARPAR-OH ({FAM}-RPARPAR-OH) [reference compound]
[7]
  binding and uptake of FAM-peptide: only background binding

## RAP: Receptor Associated Protein, inhibitor of several LDL-receptor proteins
[8]
  effect on AgNP-Cerepep binding to P3 cells: reduced
[2]
  inhibition of CP-neutravidin binding to LRP1: inhibited
